Data as given in patent US20120122870A1, “Treatment Of Ischemia-Reperfusion Injury” (MUSC FOUNDATION FOR RESEARCH DEVELOPMENT, priority 2009, published 2012).

Each compound was assayed on endogenous SK activity in MDA-MB-231 cells (assay: Cellular S1P production (endogenous SK activity) in MDA-MB-231 cells). Conditions: Homo sapiens, MDA-MB-231, MDA-MB-231 cells incubated with 20 μg/mL of compound; percentage of S1P production inhibited.
Type: cell-based
Method: (§1) Human SK was incubated with 6 μg/mL of the indicated compounds, and then assayed for activity as described above. Values in the column labeled “Recombinant SK (% inhibition)” represent the percentage of SK activity that was inhibited. MDA-MB-231 cells were incubated with 20 μg/mL of the indicated compounds and then assayed for endogenous SK activity as indicated above. Values in the column labeled “Cellular S1P (% inhibition)” represent the percentage of S1P production that was inhibited. Additionally, MDA-MB-231 cells were treated with varying concentration of certain compounds and the amount of S1P produced by the cells was determined. Values in the column labeled “Cellular S1P IC50 (μM)” represent the concentration of compound required to inhibit the production of S1P by 50%. ND=not determined.

Structure (SMILES)	inhibition at 20 µg/mL
CC(C)NC(=O)C12CC3CC(C1)CC(c1ccc(Cl)cc1)(C3)C2 [A1, 3-(4-Chloro-phenyl)-adamantane-1-carboxylic acid isopropylamide]	0%
O=C(Nc1ccccc1)C12CC3CC(C1)CC(c1ccc(Cl)cc1)(C3)C2 [A4, 3-(4-Chloro-phenyl)-adamantane-1-carboxylic acid phenylamide]	14%
O=C(Nc1ccc(O)cc1)C12CC3CC(CC(C3)C1)C2 [A5, Adamantane-1-carboxylic acid (4-hydroxy-phenyl)-amide]	17%
O=C(Nc1ccc(O)cc1)C12CC3CC(C1)CC(c1ccc(Cl)cc1)(C3)C2 [A6, 3-(4-Chloro-phenyl)-adamantane-1-carboxylic acid (4-hydroxy-phenyl)-amide]	90%
CC(=O)Oc1ccc(NC(=O)C23CC4CC(C2)CC(c2ccc(Cl)cc2)(C4)C3)cc1 [A7, Acetic acid 4-{[3-(4-chloro-phenyl)-adamantane-1-carbonyl]-amino}-phenyl ester]	96%
O=C(Nc1ccc(O)cc1O)C12CC3CC(C1)CC(c1ccc(Cl)cc1)(C3)C2 [A8, 3-(4-Chloro-phenyl)-adamantane-1-carboxylic acid (2,4-dihydroxy-phenyl)-amide]	0%

Same assay, conditions: Homo sapiens; MDA-MB-231 cells, varying concentrations; concentration inhibiting S1P production by 50%

IC50	Structure (SMILES)
15 µM	O=C(Nc1ccc(O)cc1)C12CC3CC(C1)CC(c1ccc(Cl)cc1)(C3)C2 [A6, 3-(4-Chloro-phenyl)-adamantane-1-carboxylic acid (4-hydroxy-phenyl)-amide]

These compounds were tested against T1, recombinant human SK (Homo sapiens, UniProt Q9NYA1) (assay: Recombinant human SK activity assay ([3H]sphingosine to [3H]S1P)). Conditions: Human SK incubated with 6 μg/mL of compound; percentage of SK activity inhibited.
T1 construct: GST (glutathione-S-transferase) (N); made in house; host or cells: bacteria (pGEX bacterial expression vector)
T1 sequence (Q9NYA1 whole entry): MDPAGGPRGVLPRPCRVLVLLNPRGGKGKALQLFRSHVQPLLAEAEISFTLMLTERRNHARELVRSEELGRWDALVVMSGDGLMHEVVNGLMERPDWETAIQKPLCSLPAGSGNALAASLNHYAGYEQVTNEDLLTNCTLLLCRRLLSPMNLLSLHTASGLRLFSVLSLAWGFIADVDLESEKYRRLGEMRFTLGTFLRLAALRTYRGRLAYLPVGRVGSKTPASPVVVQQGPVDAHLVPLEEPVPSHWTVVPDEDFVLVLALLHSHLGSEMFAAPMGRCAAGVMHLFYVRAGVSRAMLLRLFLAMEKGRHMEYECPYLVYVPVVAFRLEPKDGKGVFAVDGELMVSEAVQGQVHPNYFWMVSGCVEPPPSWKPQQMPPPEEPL
Type: biochemical
Method: SK activity is measured by incubation of the recombinant SK with [^3H]sphingosine and 1 mM ATP under defined conditions, followed by extraction of the assay mixture with chloroform:methanol under basic conditions. […] Radioactivity in aliquots of the aqueous phase is then quantified as a measure of [^3H]S1P formation.
as §1

inhibition at 6 µg/mL	Recombinant SK (% inhibition)	Structure (SMILES)
44%	–	O=C(Nc1ccccc1)C12CC3CC(C1)CC(c1ccc(Cl)cc1)(C3)C2 [A4, 3-(4-Chloro-phenyl)-adamantane-1-carboxylic acid phenylamide]
100%	–	O=C(Nc1ccc(O)cc1)C12CC3CC(CC(C3)C1)C2 [A5, Adamantane-1-carboxylic acid (4-hydroxy-phenyl)-amide]
100%	–	CC(=O)Oc1ccc(NC(=O)C23CC4CC(C2)CC(c2ccc(Cl)cc2)(C4)C3)cc1 [A7, Acetic acid 4-{[3-(4-chloro-phenyl)-adamantane-1-carbonyl]-amino}-phenyl ester]
49%	–	O=C(Nc1ccc(O)cc1O)C12CC3CC(C1)CC(c1ccc(Cl)cc1)(C3)C2 [A8, 3-(4-Chloro-phenyl)-adamantane-1-carboxylic acid (2,4-dihydroxy-phenyl)-amide]
64%	–	O=C(NCCc1ccc2c(c1)OCO2)C12CC3CC(C1)CC(c1ccc(Cl)cc1)(C3)C2 [A45, 3-(4-Chloro-phenyl)-adamantane-1-carboxylic acid (2-benzo[1,3]dioxol-5-yl-ethyl)-amide]
26%	–	O=C(NCCc1ccc(Oc2ccccc2)cc1)C12CC3CC(C1)CC(c1ccc(Cl)cc1)(C3)C2 [A47, 3-(4-Chloro-phenyl)-adamantane-1-carboxylic acid [2-(4-phenoxy-phenyl)-ethyl]-amide]
52%	–	CC(C)(C)NCCCNC(=O)C12CC3CC(C1)CC(c1ccc(Cl)cc1)(C3)C2 [A53, 3-(4-Chloro-phenyl)-adamantane-1-carboxylic acid (3-tert-butylamino-propyl)-amide]
95%	–	O=C(NCCCN1CCCC1)C12CC3CC(C1)CC(c1ccc(Cl)cc1)(C3)C2 [A54, 3-(4-Chloro-phenyl)-adamantane-1-carboxylic acid (3-pyrrolidin-1-yl-propyl)-amide]
27%	–	FC(F)(F)c1ccc(CNCC23CC4CC(C2)CC(c2ccc(Cl)cc2)(C4)C3)cc1 [A77, [3-(4-Chloro-phenyl)-adamantan-1-ylmethyl]-(4-trifluoromethyl-benzyl)-amine]
43%	–	Fc1cc(C(F)(F)F)ccc1CNCC12CC3CC(C1)CC(c1ccc(Cl)cc1)(C3)C2 [A78, [3-(4-Chloro-phenyl)-adamantan-1-ylmethyl]-(2-fluoro-4-trifluoromethyl-benzyl)-amine]
75%	–	CN1CCC(NCC23CC4CC(C2)CC(c2ccc(Cl)cc2)(C4)C3)CC1 [A82, [3-(4-Chloro-phenyl)-adamantan-1-ylmethyl]-(1-methyl-piperidin-4-yl)-amine]
84%	–	CC(C)(C)NCCCNCC12CC3CC(C1)CC(c1ccc(Cl)cc1)(C3)C2 [A84, N-tert-Butyl-N′-[3-(4-chloro-phenyl)-adamantan-1-ylmethyl]-propane-1,3-diamine]
6%	–	CN1CCCC1CCNCC12CC3CC(C1)CC(c1ccc(Cl)cc1)(C3)C2 (stereo not drawn) [A86, [3-(4-Chloro-phenyl)-adamantan-1-ylmethyl]-[2-(1-methyl-pyrrolidin-2-yl)-ethyl]-amine]
1%	–	Clc1ccc(C23CC4CC(CC(CNCc5ccncc5)(C4)C2)C3)cc1 [A88, [3-(4-Chloro-phenyl)-adamantan-1-ylmethyl]-pyridin-4-ylmethyl-amine]

More lines, now with the values behind:

Structure (SMILES)	inhibition at 6 µg/mL	Recombinant SK (% inhibition)
CC(C)NC(=O)C12CC3CC(C1)CC(c1ccc(Cl)cc1)(C3)C2 [A1, 3-(4-Chloro-phenyl)-adamantane-1-carboxylic acid isopropylamide]	38%	–
O=C(Nc1ccc(O)cc1)C12CC3CC(C1)CC(c1ccc(Cl)cc1)(C3)C2 [A6, 3-(4-Chloro-phenyl)-adamantane-1-carboxylic acid (4-hydroxy-phenyl)-amide]	72%	–
O=C(NCc1ccc(O)c(O)c1)C12CC3CC(C1)CC(c1ccc(Cl)cc1)(C3)C2 [A36, 3-(4-Chloro-phenyl)-adamantane-1-carboxylic acid 3,4-dihydroxy-benzylamide]	37%	–
COc1ccc(CCNC(=O)C23CC4CC(C2)CC(c2ccc(Cl)cc2)(C4)C3)cc1Br [A42, 3-(4-Chloro-phenyl)-adamantane-1-carboxylic acid [2-(3-bromo-4-methoxy-phenyl)-ethyl]-amide]	5%	–
O=C(NCCc1cccc(Oc2ccccc2)c1)C12CC3CC(C1)CC(c1ccc(Cl)cc1)(C3)C2 [A46, 3-(4-Chloro-phenyl)-adamantane-1-carboxylic acid [2-(3-phenoxy-phenyl)-ethyl]-amide]	4%	–
O=C(NCc1ccc(-c2ccccc2)cc1)C12CC3CC(C1)CC(c1ccc(Cl)cc1)(C3)C2 [A49, 3-(4-Chloro-phenyl)-adamantane-1-carboxylic acid (biphenyl-4-ylmethyl)-amide]	33%	–
O=C1CCCN1CCCNC(=O)C12CC3CC(C1)CC(c1ccc(Cl)cc1)(C3)C2 [A55, 3-(4-Chloro-phenyl)-adamantane-1-carboxylic acid [3-(2-oxo-pyrrolidin-1-yl)-propyl]-amide]	8%	–
O=C(NCCN1CCNCC1)C12CC3CC(C1)CC(c1ccc(Cl)cc1)(C3)C2 [A59, 3-(4-Chloro-phenyl)-adamantane-1-carboxylic acid (2-piperazin-1-yl-ethyl)-amide]	0%	–
O=C(NCCCn1ccnc1)C12CC3CC(C1)CC(c1ccc(Cl)cc1)(C3)C2 [A65, 3-(4-Chloro-phenyl)-adamantane-1-carboxylic acid (3-imidazol-1-yl-propyl)-amide]	3%	–
O=C(Nc1nnn[nH]1)C12CC3CC(C1)CC(c1ccc(Cl)cc1)(C3)C2 [A67, 3-(4-Chloro-phenyl)-adamantane-1-carboxylic acid (1H-tetrazol-5-yl)-amide]	10%	–
O=C(Nc1ncnc2[nH]cnc12)C12CC3CC(C1)CC(c1ccc(Cl)cc1)(C3)C2 [A73, 3-(4-Chloro-phenyl)-adamantane-1-carboxylic acid (9H-purin-6-yl)-amide]	53%	–
Fc1ccc(CNCC23CC4CC(C2)CC(c2ccc(Cl)cc2)(C4)C3)cc1C(F)(F)F [A79, [3-(4-Chloro-phenyl)-adamantan-1-ylmethyl]-(4-fluoro-3-trifluoromethyl-benzyl)-amine]	19%	–
FC(F)(F)Oc1ccc(CNCC23CC4CC(C2)CC(c2ccc(Cl)cc2)(C4)C3)cc1 [A80, [3-(4-Chloro-phenyl)-adamantan-1-ylmethyl]-(4-trifluoromethoxy-benzyl)-amine]	5%	–
Clc1ccc(C23CC4CC(CC(CNCCc5cccc(Oc6ccccc6)c5)(C4)C2)C3)cc1 [A81, [3-(4-Chloro-phenyl)-adamantan-1-ylmethyl]-[2-(3-phenoxy-phenyl)-ethyl]-amine]	67%	–
Clc1ccc(C23CC4CC(CC(CNCCCN5CCCC5)(C4)C2)C3)cc1 [A85, [3-(4-Chloro-phenyl)-adamantan-1-ylmethyl]-(3-pyrrolidin-1-yl-propyl)-amine]	0%	–
CC(Nc1ccccc1)C12CC3CC(CC(c4ccccc4)(C3)C1)C2 (stereo not drawn) [A93, Phenyl-[1-(3-phenyl-adamantan-1-yl)-ethyl]-amine]	70%	–
CC(NC1CCN(C)CC1)C12CC3CC(CC(C3)C1)C2 (stereo not drawn) [A104, (1-Adamantan-1-yl-ethyl)-(1-methyl-piperidin-4-yl)-amine]	0%	–
O=C(/C=C/c1ccc(Cl)cc1)C12CC3CC(C1)CC(c1ccc(Cl)cc1)(C3)C2 [A130, 3-(4-Chloro-phenyl)-1-[3-(4-chloro-phenyl)-adamantan-1-yl]-propenone]	38%	–
N#Cc1ccc(/C=C/C(=O)C23CC4CC(C2)CC(c2ccc(Cl)cc2)(C4)C3)cc1 [A131, 4-{3-[3-(4-Chloro-phenyl)-adamantan-1-yl]-3-oxo-propenyl}-benzonitrile]	41%	–
O=C(/C=C/c1ccc(O)cc1)C12CC3CC(C1)CC(c1ccc(Cl)cc1)(C3)C2 [A132, 1-[3-(4-Chloro-phenyl)-adamantan-1-yl]-3-(4-hydroxy-phenyl)-propenone]	8%	–
O=C(/C=C/c1ccc2ccccc2c1)C12CC3CC(C1)CC(c1ccc(Cl)cc1)(C3)C2 [A133, 1-[3-(4-Chloro-phenyl)-adamantan-1-yl]-3-naphthalen-2-yl-propenone]	36%	–
O=C(/C=C/c1ccc(Cl)nc1)C12CC3CC(C1)CC(c1ccc(Cl)cc1)(C3)C2 [A134, 1-[3-(4-Chloro-phenyl)-adamantan-1-yl]-3-(6-chloro-pyridin-3-yl)-propenone]	52%	–
O=C(/C=C/c1cnc[nH]1)C12CC3CC(C1)CC(c1ccc(Cl)cc1)(C3)C2 [A135, 1-[3-(4-Chloro-phenyl)-adamantan-1-yl]-3-(1H-imidazol-4-yl)-propenone]	64%	–
O=C(NCCCN1CCCC1)c1nc(-c2ccc(Cl)cc2)cs1 [B59, 4-(4-Chloro-phenyl)-thiazole-2-carboxylic acid (3-pyrrrolidin-1-yl-propyl)-amide]	–	46%
